Results: ChEMBL document CHEMBL4028802, “DILIrank: the largest reference drug list ranked by the risk for developing drug-induced liver injury in humans” (Drug Discov Today, 2016)

Columns and labels:
[1] = species: Homo sapiens; assay: Liver toxicity in human assessed as induction of drug-induced liver injury by measuring severity class index
[2] = species: Homo sapiens; assay: Liver toxicity in human assessed as induction of drug-induced liver injury by measuring verified drug-induced liver injury concern status
For DILI severity class in this document: key of the grades not given here.

SMILES | DILI_severity_class [1] | DILI_Concern [2]
CC1COc2c(N3CCN(C)CC3)c(F)cc3c(=O)c(C(=O)O)cn1c23 (configuration not stated) [OFLOXACIN] | 3 | Less-Dili-Concern
CNC[C@H](O)c1ccc(O)c(O)c1 [EPINEPHRINE] | 0 | No-Dili-Concern
O=c1[nH]c(=O)n([C@@H]2O[C@H](CO)[C@@H](O)[C@@H]2F)cc1I [FIALURIDINE] | 8 | Most-Dili-Concern
CO[C@@]1(NC(=O)Cc2cccs2)C(=O)N2C(C(=O)O)=C(COC(N)=O)CS[C@@H]21 [CEFOXITIN] | 3 | Ambiguous-Dili-Concern
CC(NN)c1ccccc1 (configuration not stated) [MEBANAZINE] | 8 | Most-Dili-Concern
COC(=O)N[C@H](C(=O)N[C@@H](Cc1ccccc1)[C@@H](O)CN(Cc1ccc(-c2ccccn2)cc1)NC(=O)[C@@H](NC(=O)OC)C(C)(C)C)C(C)(C)C [ATAZANAVIR] | 3 | Less-Dili-Concern
CC(CN(C)C)CN1c2ccccc2CCc2ccccc21 (configuration not stated) [TRIMIPRAMINE] | 2 | Ambiguous-Dili-Concern
NC(=O)OCC(COC(N)=O)c1ccccc1 [FELBAMATE] | 7 | Most-Dili-Concern
COCC1=C(C(=O)O)N2C(=O)[C@@H](NC(=O)/C(=N\OC)c3csc(N)n3)[C@H]2SC1 [CEFPODOXIME] | 3 | Ambiguous-Dili-Concern
CN1c2c(nc(N)[nH]c2=O)NC[C@@H]1CNc1ccc(C(=O)N[C@@H](CCC(=O)[O-])C(=O)[O-])cc1.[Ca+2] [LEVOMEFOLATE CALCIUM] | 0 | No-Dili-Concern
OCCN1CCN(CCCN2c3ccccc3Sc3ccc(Cl)cc32)CC1 [PERPHENAZINE] | 3 | Less-Dili-Concern
CCCN1C[C@H](CSC)C[C@@H]2c3cccc4[nH]cc(c34)C[C@H]21 [PERGOLIDE] | 3 | Ambiguous-Dili-Concern
CC(C)NCC(O)COc1ccc(CCOCC2CC2)cc1 (configuration not stated) [BETAXOLOL] | 3 | Ambiguous-Dili-Concern
C[C@H](/C=C/[C@H](C)C(C)(C)O)[C@H]1CC[C@H]2/C(=C/C=C3C[C@@H](O)C[C@H](O)C3)CCC[C@]12C [PARICALCITOL] | 3 | Ambiguous-Dili-Concern
C=CCN1CC[C@]23c4c5ccc(O)c4O[C@H]2C(=O)CC[C@@]3(O)[C@H]1C5 [NALOXONE] | 0 | No-Dili-Concern
CO/N=C(\C(=O)N[C@@H]1C(=O)N2C(C(=O)O)=C(COC(C)=O)CS[C@H]12)c1csc(N)n1 [CEFOTAXIME] | 5 | Less-Dili-Concern
CN(C)C(=O)C(CCN1CCC(O)(c2ccc(Cl)cc2)CC1)(c1ccccc1)c1ccccc1 [LOPERAMIDE] | 0 | No-Dili-Concern
COc1ccc(Cc2nccc3cc(OC)c(OC)cc23)cc1OC [PAPAVERINE] | 5 | Most-Dili-Concern
CN(C)CCC[C@@]1(c2ccc(F)cc2)OCc2cc(C#N)ccc21 [ESCITALOPRAM] | 7 | Less-Dili-Concern
CCC1(c2ccccc2)NC(=O)N(C)C1=O (configuration not stated) [MEPHENYTOIN] | 5 | Ambiguous-Dili-Concern
COc1cccc(C2(O)CCCCC2CN(C)C)c1 (configuration not stated) [TRAMADOL] | 7 | Ambiguous-Dili-Concern

SMILES | DILI_severity_class [1] | DILI_Concern [2]
COc1ccccc1OCC(O)CO (configuration not stated) [GUAIFENESIN] | 0 | No-Dili-Concern
COc1cc2ncnc(Nc3ccc(F)c(Cl)c3)c2cc1OCCCN1CCOCC1 [GEFITINIB] | 4 | Most-Dili-Concern
CC1=NS(=O)(=O)c2cc(Cl)ccc2N1 [DIAZOXIDE] | 3 | Ambiguous-Dili-Concern
CCN(CC)C(=O)/C(C#N)=C/c1cc(O)c(O)c([N+](=O)[O-])c1 [ENTACAPONE] | 0 | Less-Dili-Concern
O=C(O)Cc1ccccc1Nc1c(Cl)cccc1Cl [DICLOFENAC] | 8 | Most-Dili-Concern
CCOC(=O)[C@H](CCc1ccccc1)N[C@@H](C)C(=O)N1CCC[C@H]1C(=O)O | 7 | Less-Dili-Concern
O=C(O)CCc1nc(-c2ccccc2)c(-c2ccccc2)o1 [OXAPROZIN] | 3 | Less-Dili-Concern
N[C@@H](Cc1cc(I)c(Oc2ccc(O)c(I)c2)c(I)c1)C(=O)O [LIOTHYRONINE] | 0 | No-Dili-Concern
COC(=O)C(c1ccccc1)C1CCCCN1 (configuration not stated) [METHYLPHENIDATE] | 3 | Less-Dili-Concern
C[N+]1(CC2CC2)CC[C@]23c4c5ccc(O)c4O[C@H]2C(=O)CC[C@@]3(O)[C@H]1C5.[Br-] (some centres not stated) [METHYLNALTREXONE BROMIDE] | 0 | No-Dili-Concern
CO/N=C(\C(=O)N[C@@H]1C(=O)N2C(C(=O)O)=C(/C=C\c3scnc3C)CS[C@H]12)c1csc(N)n1 [CEFDITOREN] | 2 | Ambiguous-Dili-Concern
Cn1nnc2c(C(N)=O)ncn2c1=O [TEMOZOLOMIDE] | 4 | Less-Dili-Concern
CC(C)(O)c1ccccc1CC[C@@H](SCC1(CC(=O)O)CC1)c1cccc(/C=C/c2ccc3ccc(Cl)cc3n2)c1 [MONTELUKAST] | 3 | Less-Dili-Concern
COC(=O)[C@H](c1ccccc1)[C@H]1CCCCN1 [DEXMETHYLPHENIDATE] | 7 | Less-Dili-Concern
O=P(O)(O)C(Sc1ccc(Cl)cc1)P(=O)(O)O [TILUDRONIC ACID] | 0 | No-Dili-Concern
CNCCC=C1c2ccccc2CCc2ccccc21 [NORTRIPTYLINE] | 8 | Most-Dili-Concern
Clc1ccc2c(c1)C(N1CCNCC1)=Nc1ccccc1O2 [AMOXAPINE] | 3 | Ambiguous-Dili-Concern
COC(=O)[C@@H]1CC2=CC(=O)CC[C@]2(C)[C@@]23O[C@@H]2C[C@@]2(C)[C@@H](CC[C@@]24CCC(=O)O4)[C@H]13 [EPLERENONE] | 4 | Ambiguous-Dili-Concern
C#CCN(C)[C@H](C)Cc1ccccc1 [SELEGILINE] | 0 | No-Dili-Concern
OC(CNCC(O)C1CCc2cc(F)ccc2O1)C1CCc2cc(F)ccc2O1 (configuration not stated) [NEBIVOLOL] | 3 | Ambiguous-Dili-Concern
COCCc1ccc(OCC(O)CNC(C)C)cc1.COCCc1ccc(OCC(O)CNC(C)C)cc1.O=C(O)CCC(=O)O (configuration not stated) [METOPROLOL SUCCINATE] | 3 | Ambiguous-Dili-Concern

SMILES | DILI_severity_class [1] | DILI_Concern [2]
CC(C)n1c(/C=C/C(O)CC(O)CC(=O)O)c(-c2ccc(F)cc2)c2ccccc21 (configuration not stated) [FLUVASTATIN] | 3 | Less-Dili-Concern
CC1(C)S[C@@H]2[C@H](NC(=O)[C@H](N)c3ccc(O)cc3)C(=O)N2[C@H]1C(=O)O [AMOXICILLIN] | 5 | Less-Dili-Concern
CN(C)CCCN1c2ccccc2Sc2ccc(Cl)cc21 [CHLORPROMAZINE] | 2 | Less-Dili-Concern
CC1=C(C(=O)O)N2C(=O)[C@@H](NC(=O)[C@H](N)c3ccccc3)[C@H]2SC1 [CEPHALEXIN ANHYDROUS] | 4 | Less-Dili-Concern
COCCOC(=O)C1=C(C)NC(C)=C(C(=O)OC(C)C)C1c1cccc([N+](=O)[O-])c1 (configuration not stated) [NIMODIPINE] | 3 | Ambiguous-Dili-Concern
CN1C2CCCC1CC(NC(=O)c1nn(C)c3ccccc13)C2 (configuration not stated) [GRANISETRON] | 3 | Ambiguous-Dili-Concern
OC(CCN1CCCCC1)(c1ccccc1)C1CC2C=CC1C2 (configuration not stated) [BIPERIDEN] | 0 | No-Dili-Concern
CC1(C)O[C@@H]2[C@@H](CO[C@@]3(COS(N)(=O)=O)OC(C)(C)O[C@@H]23)O1 [TOPIRAMATE] | 3 | Less-Dili-Concern
N=C(N)NC(=O)c1nc(Cl)c(N)nc1N [AMILORIDE] | 3 | Less-Dili-Concern
C[C@@H](O)[C@H]1C(=O)N2C(C(=O)O)=C(S[C@@H]3CN[C@H](CNS(N)(=O)=O)C3)[C@H](C)[C@H]12 [DORIPENEM] | 3 | Ambiguous-Dili-Concern
CCCCC1=NC2(CCCC2)C(=O)N1Cc1ccc(-c2ccccc2-c2nnn[nH]2)cc1 [IRBESARTAN] | 5 | Less-Dili-Concern
CSCC[C@H](N)C(=O)O [METHIONINE] | 0 | No-Dili-Concern
c1cnc2cc3c(cc2n1)[C@@H]1CNC[C@H]3C1 [VARENICLINE] | 2 | Less-Dili-Concern
O=C(O)P(=O)(O)O [FOSCARNET] | 3 | Ambiguous-Dili-Concern
Cc1nnc(NS(=O)(=O)c2ccc(N)cc2)s1 [SULFAMETHIZOLE] | 0 | Less-Dili-Concern
CC(S)C(=O)NCC(=O)O (configuration not stated) [TIOPRONIN] | 3 | Ambiguous-Dili-Concern
O=C(O)COc1ccc(C(=O)c2cccs2)c(Cl)c1Cl | 8 | Most-Dili-Concern
NC(N)=Nc1nc(CSCCN/C=N/S(=O)(=O)c2ccc(Br)cc2)cs1 [EBROTIDINE] | 8 | Most-Dili-Concern
C[C@@H](Cc1ccccc1)N(C)Cc1ccccc1 [BENZPHETAMINE] | 0 | No-Dili-Concern
